Measurements: patent US8486985B2, “Selective subtype alpha 2 adrenergic agents and methods for use thereof” (Allergan, Inc., priority 2008, dated 2013)
Like-named read-outs stand apart in the source and are kept apart here.

What was measured:
alpha 2B receptor = molecular target: T1, alpha 2B receptor (Homo sapiens, UniProt P18089); assay: RSAT (Receptor Selection and Amplification Technology) assay, alpha 2B; type: cell-based; settings: for RSAT (rel eff) Alpha 2B: intrinsic activity: ratio of maximal effect to that of standard full agonist brimonidine
T1 construct: expressed in transfected cells; host or cells: NIH-3T3 cells
T1 sequence (P18089 1-450): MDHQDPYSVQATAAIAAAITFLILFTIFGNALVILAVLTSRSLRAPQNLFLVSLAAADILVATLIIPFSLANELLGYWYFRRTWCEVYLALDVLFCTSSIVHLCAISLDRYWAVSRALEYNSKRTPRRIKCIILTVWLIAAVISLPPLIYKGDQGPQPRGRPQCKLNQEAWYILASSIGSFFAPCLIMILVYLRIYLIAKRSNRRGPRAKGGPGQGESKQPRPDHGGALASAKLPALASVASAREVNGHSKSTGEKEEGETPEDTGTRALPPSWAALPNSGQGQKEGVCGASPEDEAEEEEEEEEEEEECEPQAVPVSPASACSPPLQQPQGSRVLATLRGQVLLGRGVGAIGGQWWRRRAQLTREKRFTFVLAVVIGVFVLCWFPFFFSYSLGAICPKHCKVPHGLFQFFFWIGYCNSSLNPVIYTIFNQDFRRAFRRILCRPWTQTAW
Experimental: (§1) 76, pp. 308-311 (incorporated herein by reference) and is also described below.
(§2) The RSAT assay measures a receptor-mediated loss of contact inhibition that results in selective proliferation of receptor-containing cells in a mixed population of confluent cells. The increase in cell number is assessed with an appropriate transfected marker gene such as β-galactosidase, the activity of which can be easily measured in a 96-well format. Receptors that activate the G protein, Gq, elicit this response. Alpha 2 receptors, which normally couple to Gi, activate the RSAT response when coexpressed with a hybrid Gq protein that has a Gi receptor recognition domain, called Gq/i5.
(§3) NIH-3T3 cells are plated at a density of 2×10^6 cells in 15 cm dishes and maintained in Dulbecco's modified Eagle's medium supplemented with 10% calf serum. One day later, cells are cotransfected by calcium phosphate precipitation with mammalian expression plasmids encoding p-SV-β-galactosidase (5-10 μg), receptor (1-2 μg) and G protein (1-2 μg). 40 μg salmon sperm DNA may also be included in the transfection mixture. Fresh media is added on the following day and 1-2 days later, cells are harvested and frozen in 50 assay aliquots. Cells are thawed and 100 μl added to 100 μL aliquots of various concentrations of drugs in triplicate in 96-well dishes. Incubations continue 72-96 hr at 37° C. After washing with phosphate-buffered saline, β-galactosidase enzyme activity is determined by adding 200 μL of the chromogenic substrate (consisting of 3.5 mM o-nitrophenyl-β-D-galactopyranoside and 0.5% nonidet P-40 in phosphate buffered saline), incubating overnight at 30° C. and measuring optical density at 420 nm. The absorbance is a measure of enzyme activity, which depends on cell number and reflects a receptor-mediated cell proliferation. The efficacy or intrinsic activity is calculated as a ratio of the maximal effect of the drug to the maximal effect of a standard full agonist for each receptor subtype. Brimonidine, the chemical structure of which is shown below, is used as the standard agonist for the alpha 2B and alpha 2C receptors.

alpha 2C receptor = molecular target: T2, alpha 2C receptor (Homo sapiens, UniProt P18825); assay: RSAT (Receptor Selection and Amplification Technology) assay, alpha 2C; type: cell-based; settings: for RSAT (rel eff) Alpha 2C: intrinsic activity: ratio of maximal effect to that of standard full agonist brimonidine
T2 construct: expressed in transfected cells; host or cells: NIH-3T3 cells
T2 sequence (P18825 1-462): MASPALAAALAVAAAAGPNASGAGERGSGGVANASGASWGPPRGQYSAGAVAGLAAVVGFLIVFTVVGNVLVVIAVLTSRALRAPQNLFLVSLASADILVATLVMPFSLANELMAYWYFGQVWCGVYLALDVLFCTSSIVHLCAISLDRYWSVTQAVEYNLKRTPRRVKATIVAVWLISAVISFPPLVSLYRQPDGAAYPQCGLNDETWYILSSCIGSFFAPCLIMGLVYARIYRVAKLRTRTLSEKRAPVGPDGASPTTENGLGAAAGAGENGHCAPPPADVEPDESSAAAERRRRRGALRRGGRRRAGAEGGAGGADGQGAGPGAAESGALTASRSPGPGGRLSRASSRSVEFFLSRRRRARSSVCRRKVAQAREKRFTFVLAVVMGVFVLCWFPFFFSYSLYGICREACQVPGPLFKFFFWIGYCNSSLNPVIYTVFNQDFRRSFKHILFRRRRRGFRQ
Experimental: as §1, §2, §3

Row | Compound | EC50 (alpha 2B receptor) | RSAT (rel eff) Alpha 2B (alpha 2B receptor) | EC50 (alpha 2C receptor) | RSAT (rel eff) Alpha 2C (alpha 2C receptor) | EC50 (alpha 2B receptor; NIH-3T3 cells cotransfected with receptor, Gq/i5 and beta-galactosidase, read-out: RSAT EC50 (nM) Alpha 2B) | EC50 (alpha 2C receptor; NIH-3T3 cells cotransfected with receptor, Gq/i5 and beta-galactosidase, nd = not determinable (>10,000), read-out: RSAT EC50 (nM) Alpha 2C)
1 | C[C@@H](NC1=NCCN1)c1cccc(Cl)c1Cl [Compound 1, N-[1-(2,3-dichloro-phenyl)-ethyl]-4,5-dihydro-1H-imidazol-2-amine] | 31 nM | 0.68 | 41 nM | 0.35 |  | 
2 | C[C@H](NC1=NCCN1)c1cccc(Cl)c1Cl [Compound 2, (+)-(S)—N-[1-(2,3-dichloro-phenyl)-ethyl]-4,5-dihydro-1H-imidazol-2-amine] | 19 nM | 0.63 | 63 nM | 0.33 |  | 
3 | CCC(NC1=NCCN1)c1cccc(Cl)c1Cl (stereo not drawn) [Compound 3, N-[1-(2,3-dichloro-phenyl)-propyl]-4,5-dihydro-1H-imidazol-2-amine] | 38 nM | 0.82 | 46 nM | 0.30 |  | 
4 | Clc1cccc(C(CCc2ccccc2)NC2=NCCN2)c1Cl (stereo not drawn) [Compound 4, N-[1-(2,3-dichloro-phenyl)-3-phenyl-propyl]-4,5-dihydro-1H-imidazol-2-amine] |  | 0.77 |  |  | 11 nM | > 10000 nM
